Assay results: patent US10441601B2, “Method for treating schizophrenia” (St. Jude Children's Research Hospital, Inc., priority 2015, dated 2019)

Tested on: TC projections to the ACx
Experiment: Whole-cell recordings of TC EPSCs in acute thalamocortical slices, bath application of antipsychotics / Drd2 antagonist
Assay type: cell-based, mouse
Description: Acute primary thalamocortical (TC) slices (400-μm thick) containing the left auditory cortex (ACx) and the left ventral part of the medial geniculate nuclei (MGv) of the thalamus were prepared as previously described^5. […] Primary TC slices were obtained from the left hemisphere by using a slicing angle of 15°.
Whole-cell recordings were obtained from cell bodies of layer (L) 3/4 thalamorecipient neurons in the ACx and thalamic-relay neurons in the MGv. Mice were chosen in a pseudorandom order, without the experimenter's prior knowledge of genotype or treatments. […] Voltage-clamp recordings were made using a Multiclamp 700B (Molecular Devices, Sunnyvale Calif.), digitized (10 kHz), and recorded using the pCLAMP 10.0 software (Molecular Devices, Sunnyvale Calif.). EPSCs were recorded at holding membrane potentials of −70 mV. In all experiments, membrane potentials were corrected for a liquid junction potential of −10 mV. TC excitatory postsynaptic currents (EPSCs) were evoked by current pulses (duration, 100 μs) delivered to the thalamic radiation via tungsten bipolar electrodes. Paired-pulse ratio (PPR) of TC and corticocortical (CC) EPSCs and the NMDAR/AMPAR ratio were measured as described previously^39. To ensure consistent access resistance of the recording electrode during long-term experiments, the peak amplitude of a brief (10-ms) hyperpolarizing test pulse (−5 mV) was monitored, which was given 250 ms after a stimulus. Access resistance (Ra) in recorded neurons was typically 10 to 25 MO.
Acute primary thalamocortical (TC) slices (400 µm thick) containing the auditory cortex (ACx) and the ventral part of the medial geniculate nuclei (MGv) of the thalamus were prepared as previously described^6. […] Primary TC slices were obtained from the left hemisphere by using a slicing angle of 15°.
Whole-cell recordings were obtained from cell bodies of layer (L) 3/4 thalamorecipient neurons in the ACx and thalamic-relay neurons in the MGv. […] Voltage-clamp recordings were made using a Multiclamp 700B, digitized (10 kHz), and recorded using the pCLAMP 10.0 software. EPSCs were recorded at holding membrane potentials of −70 mV. In all experiments, membrane potentials were corrected for a liquid junction potential of −10 mV. TC EPSCs were evoked by current pulses (duration, 100 […]s) delivered to the thalamic radiation via tungsten bipolar electrodes. To ensure consistent access resistance of the recording electrode during long-term experiments, the peak amplitude of a brief (10-ms) hyperpolarizing test pulse (−5 mV) was monitored given 250 ms after a stimulus. Access resistance (Ra) in recorded neurons was typically 10 to 25 MΩ.
In brief, the thalamic radiation of WT mice was stimulated to evoke TC EPSCs with a rise slope of approximately 100 pA/ms. The effect of the antipsychotic agent haloperidol on TC EPSC 30 minutes after its bath application was compared to the preapplication baseline TC EPSC (AH).

Structure (SMILES) | Effect on TC EPSCs (4-month-old miR-338+/− mice, L-741,626 20 nM) | Effect on TC EPSCs, haloperidol alone (4-month-old miR-338+/− mice) | Further effect on TC EPSCs after L-741,626 (4-month-old miR-338+/− mice, haloperidol applied on top of L-741,626 20 nM) | Sensitivity of TC EPSCs to haloperidol (Df(16)1/+ mice 2 months or younger) | Sensitivity of TC projections to haloperidol (Df(16)1/+ mice, age dependence, haloperidol 1 μM) | Sensitivity of TC projections to haloperidol (Dgcr8+/− mice older than 3 months) | Sensitivity of TC projections to haloperidol (WT mice, 1.5 to 7 months) | Sensitivity of TC projections to haloperidol, age dependence (miR-338+/− mice, 1.5 to 4 months) | Effect on deficit of TC EPSCs (smaller TC EPSCs vs WT) (older Df(16)1/+ mice, haloperidol 1 μM, 30 minutes after bath application) | Sensitivity of TC projections to haloperidol (younger Dgcr8+/− mice)
OC1(c2ccc(Cl)cc2)CCN(Cc2c[nH]c3ccccc23)CC1 [L-741,626] | substantially increased | – | – | – | – | – | – | – | – | –
O=C(CCCN1CCC(O)(c2ccc(Cl)cc2)CC1)c1ccc(F)cc1 [haloperidol] | – | increased TC EPSCs | not further elevated | not sensitive to haloperidol | became sensitive to haloperidol (1 µM) only at 3 months of age | sensitive to haloperidol at older than 3 months of age | not haloperidol-sensitive at any age | sensitive to haloperidol in an age-independent manner | rescued that deficit | not sensitive to haloperidol
